Molecular target: Carbonic anhydrase 9 (Homo sapiens, UniProt Q16790)
Test: Inhibition of human carbonic anhydrase 9 by stopped flow CO2 hydration method

| SMILES | Ki [nM] |
| --- | --- |
| Nc1cc(=O)[nH]c(SCC(=O)Nc2nc3ccc(S(N)(=O)=O)cc3s2)n1 | 253 |
| NS(=O)(=O)c1ccc2nc(NC(=O)CSc3nc(O)cc(=O)[nH]3)sc2c1 | 282 |
| Nc1nc(SCC(=O)Nc2nc3ccc(S(N)(=O)=O)cc3s2)nc2[nH]ncc12 | 172 |
| Nn1c(Cc2ccccc2)nnc1SCC(=O)Nc1nc2ccc(S(N)(=O)=O)cc2s1 | 244 |
| Cc1ccc(OCc2nnc(SCC(=O)Nc3nc4ccc(S(N)(=O)=O)cc4s3)n2N)cc1Cl | 67.3 |
| Nn1c(COc2ccc(Cl)cc2Cl)nnc1SCC(=O)Nc1nc2ccc(S(N)(=O)=O)cc2s1 | 135 |
| NS(=O)(=O)c1ccc(NCC(=O)Nc2nc3ccc(S(N)(=O)=O)cc3s2)cc1 | 4.8 |
| N#Cc1cnn(CC(=O)Nc2nc3ccc(S(N)(=O)=O)cc3s2)c1N | 276 |
| CSc1nn(CC(=O)Nc2nc3ccc(S(N)(=O)=O)cc3s2)c(N)c1C#N | 295 |
| Nc1ncnc2c1cnn2CC(=O)Nc1nc2ccc(S(N)(=O)=O)cc2s1 | 2.8 |
| CSc1nn(CC(=O)Nc2nc3ccc(S(N)(=O)=O)cc3s2)c2ncnc(N)c12 | 2.7 |
| NS(=O)(=O)c1ccc2nc(NC(=O)Cn3ncc4c(=O)[nH]cnc43)sc2c1 | 4.1 |
| CSc1nn(CC(=O)Nc2nc3ccc(S(N)(=O)=O)cc3s2)c2nc[nH]c(=O)c12 | 4.3 |
| N#Cc1cnn(CC(=O)Nc2nc3ccc(S(N)(=O)=O)cc3s2)c1NC(=S)Nc1ccccc1 | 2.8 |
| CSc1nn(CC(=O)Nc2nc3ccc(S(N)(=O)=O)cc3s2)c(NC(=S)Nc2ccccc2)c1C#N | 3.9 |
| NS(=O)(=O)c1ccc2nc(NC(=S)NCCNC(=S)Nc3nc4ccc(S(N)(=O)=O)cc4s3)sc2c1 | 2.1 |
| NS(=O)(=O)c1ccc2nc(NC(=S)N3CCN(C(=S)Nc4nc5ccc(S(N)(=O)=O)cc5s4)CC3)sc2c1 | 2.6 |
| CS/C(=N\c1nc2ccc(S(N)(=O)=O)cc2s1)NCCN/C(=N/c1nc2ccc(S(N)(=O)=O)cc2s1)SC | 2.5 |
| CS/C(=N\c1nc2ccc(S(N)(=O)=O)cc2s1)N1CCN(/C(=N/c2nc3ccc(S(N)(=O)=O)cc3s2)SC)CC1 | 2.3 |
